Tests used:
[1] = species: Rattus norvegicus; assay: Inhibition of high affinity uptake of [3H]- -dopamine into striatal nerve endings (synaptosomes) at 300 uM; assay type: functional; conditions: Brain
[2] = target: Sodium-dependent dopamine transporter (Rattus norvegicus) (UniProt P23977); assay: Inhibition of [3H]mazindol binding to dopamine transporter (DAT) of rat striatal membranes at 100 uM; assay type: cell membranes; conditions: Membrane
[3] = target: T1, Sodium-dependent dopamine transporter (Rattus norvegicus, UniProt P23977); assay: Binding affinity was tested by measuring its ability to displace [3H]-mazindol binding against dopamine transporter (DAT) of rat striatal membranes
[4] = species: Rattus norvegicus; assay: Compound was tested to inhibit high affinity uptake of [3H]- -dopamine into striatal nerve endings (synaptosomes); assay type: functional, Brain
[5] = target: T1, Sodium-dependent dopamine transporter; assay: Binding affinity was tested by measuring its ability to displace [3H]mazindol binding against dopamine transporter (DAT) of rat striatal membranes
[6] = species: Rattus norvegicus; assay: Compound was tested to inhibit high affinity uptake of [3H]- -Dopamine into striatal nerve endings (synaptosomes); assay type: functional, Brain
[7] = species: Rattus norvegicus; assay: Compound was tested to inhibit high affinity uptake of [3H]dopamine into striatal nerve endings (synaptosomes); assay type: functional, Brain

T1 sequence (P23977 whole entry): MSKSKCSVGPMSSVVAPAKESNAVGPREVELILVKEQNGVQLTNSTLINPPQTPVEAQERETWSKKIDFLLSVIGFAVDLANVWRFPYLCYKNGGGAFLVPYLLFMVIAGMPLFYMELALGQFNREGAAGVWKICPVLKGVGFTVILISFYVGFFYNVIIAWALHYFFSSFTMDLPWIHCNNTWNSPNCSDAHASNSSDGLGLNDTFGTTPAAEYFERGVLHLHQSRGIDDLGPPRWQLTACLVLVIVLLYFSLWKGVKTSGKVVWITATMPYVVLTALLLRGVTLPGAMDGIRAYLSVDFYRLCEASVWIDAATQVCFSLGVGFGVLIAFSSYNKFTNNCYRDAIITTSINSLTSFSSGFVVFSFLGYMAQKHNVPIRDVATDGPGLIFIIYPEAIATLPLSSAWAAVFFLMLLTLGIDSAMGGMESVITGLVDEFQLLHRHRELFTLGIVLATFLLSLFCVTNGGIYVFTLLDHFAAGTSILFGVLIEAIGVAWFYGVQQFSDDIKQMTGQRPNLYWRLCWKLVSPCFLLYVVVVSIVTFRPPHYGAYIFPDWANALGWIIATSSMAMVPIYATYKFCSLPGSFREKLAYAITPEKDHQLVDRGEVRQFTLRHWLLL
Sequence of Sodium-dependent dopamine transporter (Rattus norvegicus) (P23977 whole entry): as above

Question: Which results are given for `COC(=O)[C@@H]1C2CCC(C[C@@H]1OC(=O)c1ccccc1)N2S(=O)(=O)c1ccc([N+](=O)[O-])cc1` (some centres undefined)?
Answer: inhibition [1]: 72%; inhibition [2]: 80%; Ki [3]: 5.72 µM; Ki [4]: 18.8 µM

Question: Which results are given for `COC(=O)[C@@H]1C2CC[C@@H](C[C@@H]1OC(=O)c1ccccc1)N2S(=O)(=O)N=C=O`?
Answer: Ki [5]: 0.12 µM; Ki [6]: 0.16 µM

Question: `COC(=O)[C@@H]1C2CCC(C[C@@H]1OC(=O)c1ccccc1)N2S(=O)(=O)c1ccc(OC)cc1` (some centres undefined) was tested. Which Ki [3] did it give?
Answer: 6.82 µM

Question: And the Ki [4]?
Answer: 16.4 µM

Question: `COC(=O)[C@@H]1C2CCC(C[C@@H]1OC(=O)c1ccccc1)N2S(C)(=O)=O` (some centres undefined) was tested. Which Ki [5] did it give?
Answer: 1.29 µM

Question: And the Ki [7]?
Answer: 1.97 µM

Question: `COC(=O)[C@@H]1C2CCC(C[C@@H]1OC(=O)c1ccccc1)N2S(=O)(=O)c1ccccc1` (some centres undefined) was tested. Which Ki [3] did it give?
Answer: 20.8 µM

Question: What about the Ki [4] of the same molecule?
Answer: 61 µM

Question: Which Ki [3] does the source give for `COC(=O)[C@@H]1C2CCC(C[C@@H]1OC(=O)c1ccccc1)N2S(=O)(=O)C(F)(F)F` (some centres undefined) here?
Answer: 0.33 µM

Question: And the Ki [4]?
Answer: 0.76 µM

— ChEMBL document CHEMBL1127363, “Structure-activity relationship studies of N-sulfonyl analogs of cocaine: role of ionic interaction in cocaine binding” (J Med Chem, 1994)
